Test results as given in patent publication US5631246A, “Use of PAF” (The Canadian Red Cross Society, priority 1993, dated 1997).
Where two headings read alike, the source gives them in different places.

Columns and labels:
PAF receptor = PAF receptor (Homo sapiens, UniProt P25105); assay: Effect of PAF receptor antagonist on release of vWf from ECs; conditions: for % Inhibition of vWf release: 10 μM BTP-dioxolane
Method: (§2) Media with or without thrombin (@5 units/mL) served as positive and negative controls respectively. ECs were incubated for 1, 10, 20 or 30 minutes and 1, 2, 4, 6 and 24 hours in the PAF and thrombin time course studies. The EC conditioned media were recovered, centrifuged to remove any cell debris, and then frozen at -80° C. for a maximum period of 4 weeks prior to analyses.
(§3) Endothelial cells (ECs) were harvested from human umbilical cord vein as described by Jaffe et al. ((1973) Culture of Human Endothelial Cells Derived from Umbilical Veins: Identification by Morphologic and Immunologic Criteria, J. Clin. Invest. 52:2745-2756) and modified by Hashemi et al. (1990, supra). Endothelial cells were subcultured in 0.2% (w/v) gelatin-coated, 12-well Linbro™ polystyrene, tissue culture plates (Flow Laboratories, Mississauga, Ontario), then plated at a density of 1-2×10^4 /well and grown to confluence.
The standard consisted of a pool of plasma from 20 normal individuals previously determined to contain 1 unit of vWf per mL by the procedure of Zimmerman et al. (1977, J. Clin. Invest. 59:984-989). […] For some experiments, the maximum vWf that could be released was determined. Following incubation, the EC conditioned media were recovered and fresh media containing 0.05% (v/v) Tween 20 and 10 μM each of the protease inhibitors D-phenylalanyl-phenylalanyl-arginyl-chloromethyl ketone, D-phenylalanyl-propyl-arginyl-chloromethyl ketone and 1,5-Dansyl-glutamyl-glycyl-arginyl-chloromethyl ketone were added to the EC monolayers of each corresponding well. The cells were freeze-thawed three times and, to assure complete breakdown of the cell membranes as well as the Weibel-Palade bodies, disrupted in a glass homogenizer using a motor-driven teflon pestle. After centrifugation, total vWf concentration was determined in the supernatants.
The following procedure was followed.

ECs = assay: Cytotoxicity to ECs by dye exclusion test; type: cell-based, human; conditions: BTP-dioxolane preincubation
Method: as §2

monocytes [1] = assay: PAF secretion from monocytes (RIA); type: cell-based, human
Description: In addition, PAF was extracted from the monocyte supernatants and assayed using the following highly specific and sensitive radioimmunoassay. As the most predominant bioactive forms of PAF secreted by monocytes are the C16 and C18 alkyl moieties (Sugiura and Waku, (1987) Platelet-Activating Factor and Related Lipid Mediators, F. Snyder Ed. Plenum Press, N.Y. 55-85; Prescott et al. (1990) Proc. Natl. Acad. Sci. U.S.A. 81:3534-3538), PAF was quantitated using the highly specific and sensitive ^125 I-RIA kit manufactured by NEN Research Products (Du Pont Canada, Mississauga, Ontario, Canada) following extraction of the monocyte supernatants with 5 mL each of methanol and chloroform and 3.5 mL of water per mL of sample. The recovered chloroform layers, dried under nitrogen, were reconstituted in the PAF assay kit buffer prior to analysis. The development, specificity, and sensitivity of this assay for the C16 and C18 forms of PAF have been previously documented (Smal et al. (1989) Molec. Immunol. 26:711-719; (1990) J. Molec. Recognition 3:169-173; (1990) J. Immunol. Methods 128:183-188; (1990) J. Reprod. Fert. 90:419-425). […] Iodinated samples were counted on a Beckman Gamma 5500 counter (Beckman Instruments, Fullerton, Calif.). The 3H-PAF (10 Ci/mmole) and ^125 I-PAF (2200 Ci/mmole) consisted of a 1:1 admixture of the C16 and Cla forms of PAF.
Alternatively, PAF that has previously associated with monocytes following initial secretion may be released again into the supernatant.

endothelial cells = conditions: direct DDAVP treatment; cited from earlier work
monocytes [2] = assay: Cytokine secretion from monocytes (ELISA); type: cell-based, human; conditions: 100 ng DDAVP/mL, 30 min
Description: Cytokines, IL-1β, IL-6, IL-8, TNF-α, GM-CSF, and G-CSF were quantitated by specific ELISA using human recombinant cytokines as standards. The Quantikine™ kits for measuring IL-1β, IL-6, IL-8, TNF-α and G-CSF were purchased from R & D Systems (Minneapolis, Minn.). The GM-CSF assay kit came from Genzyme Corp. (Boston, Mass.). The minimum detectable levels of cytokines were: 4.5 pg/mL (IL-1β), 3.5 pg/mL (IL-6), 4.7 pg/mL (IL-8), 4.8 pg/mL (TNF-α), 11.2 pg/mL (G-CSF) and 10.0 pg/mL (GM-CSF).

[3] = system: von Willebrand factor and factor VIII; conditions: cited from earlier work
monocytes [4] = assay: Secretion of prostaglandins and adenine nucleotides from monocytes; type: cell-based, human; conditions: 100 ng DDAVP/mL, 30 min
Method: (§1) Prostaglandins E2, F2a, and I2 (assayed as 6 keto-PGF1a) were assayed using the iodinated or tritiated (for PGF2a) kits purchased from Amersham Canada (Oakville, Ontario). ATP and ADP were assayed using the adenosine-5'-triphosphate bioluminescent kit from Sigma (St. Louis, Mo.). Prior to assay, ADP present in standards or in samples was converted to ATP (Holmsen et al. (1966) Anal. Biochem. 17:456-473; (1972) Anal. Biochem. 46:489-501). Luminescence was measured using a Lumi-Aggregometer (Chrono-Log Corp., Havertown, Pa.).

endothelial cells (ECs) [5] = assay: vWf release from ECs exposed to supernatants of DDAVP-treated monocytes (vWf releasing factor)
Method: Media with or without thrombin (@5 units/mL) served as positive and negative controls respectively. […] The EC conditioned media were recovered, centrifuged to remove any cell debris, and then frozen at -80° C. for a maximum period of 4 weeks prior to analyses. […] Where appropriate ECs were preincubated with BTP-dioxolane which was not cytotoxic to the cells as determined by the dye exclusion test.
as §3
Following centrifugation at 300×g for 15 minutes at 20° C., the top layer of plasma was recovered and respun at 2,000×g for 15 minutes to provide cell-free autologous plasma. The remaining plasma and buffy coat were resuspended, adjusted to 35 mL per 60 mL volume of whole blood with PBS (Dulbecco's phosphate buffered saline-Gibco BRL), and layered over 12 ml of Histopaque 1077 (Sigma). The MNC recovered by centrifugation at 300×g for 30 minutes were washed 3×in PBS+5% (v/v) fetal calf serum (FCS; Flow Laboratories, McLean, Va.). The cell concentration was adjusted to 5×10^6 /mL in RPMI+5% FCS and then added to the pretreated tissue culture plates described by Hashemi et al. (1990, supra).
The method of Freundlich and Avdolomic (1983, Use of Gelatin/Plasma Coated Flasks for Isolating Human Peripheral Blood Monocytes, J. Immunol. Methods, 62:31-37) as modified by Hashemi et al. (1990, supra) was used to purify monocytes from mononuclear cells. The mononuclear cell suspension (5×10^6 cells/mL) was incubated for 18-20 hours at 37° C. in a CO2 incubator. The monocytes were harvested with 10 mM EDTA (Gibco Laboratories) in RPMI+5% FCS and following centrifugation were washed 3×in media and resuspended in serum-free medium (DMEM/F12, Gibco) containing 1% Nutridoma-HU (Boehringer-Mannheim Canada, Laval, Quebec). The recovered cells met morphological criteria for monocytes and were 90% positive for monocyte CD14 surface marker determined by direct immunofluorescence using fluorescent conjugated anti-Leu-M3 (CD14) monoclonal antiserum (Becton-Dickinson, Mountain View, Calif.). Cell viability was greater than 90% as determined by trypan blue dye exclusion (Gibco). […] Cell suspensions were incubated in sterile Petri dishes, previously coated with 2% gelatin for 1 hour at 37° C., for 30-minutes or for 1, 2, 4, 6 and 24 hours. Monocyte-conditioned media were centrifuged at 2,000×g for 15 minutes and frozen at -80° C. prior to incubation with the EC monolayer cultures. For some experiments, conditioned media were lipid extracted as described prior to the PAF radioimmunoassay below. The dried extracts were reconstituted with fresh DMEM/F12+1% Nutridoma-HU media, briefly sonicated and added to EC cultures.

endothelial cells (ECs) [6] = assay: PGI2 release from ECs exposed to supernatants of DDAVP-treated monocytes; type: cell-based, human
Method: as §1
If the data are expressed as a percentage increase in PGI2 released from ECs exposed to supernatants from DDAVP-treated compared to untreated monocytes, in order to control for variability in the basal response between the various monocyte and EC preparations, a 60% increase in PGI2 release was observed (P<0.05).

Chain of PAF receptor (P25105 whole entry): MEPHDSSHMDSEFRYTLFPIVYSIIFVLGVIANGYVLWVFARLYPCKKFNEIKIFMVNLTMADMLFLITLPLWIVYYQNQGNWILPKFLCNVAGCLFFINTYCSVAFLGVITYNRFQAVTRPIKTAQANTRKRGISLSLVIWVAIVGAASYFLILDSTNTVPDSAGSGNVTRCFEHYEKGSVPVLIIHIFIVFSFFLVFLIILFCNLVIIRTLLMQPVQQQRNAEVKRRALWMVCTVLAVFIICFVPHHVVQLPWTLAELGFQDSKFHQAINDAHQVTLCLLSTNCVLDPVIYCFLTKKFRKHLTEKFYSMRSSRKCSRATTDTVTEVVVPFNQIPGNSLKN

In the case of COc1cc([C@H]2OC[C@H](c3cc(OC)c(OC)c(OC)c3)O2)cc(OC)c1OC (racemic) [BTP-dioxolane], the “% Inhibition of vWf release” value (PAF receptor; supernatants from monocytes treated with 100 ng DDAVP/mL, P <0.001) is reported as 82%, the “% Inhibition of vWf release” value (PAF receptor; supernatants from untreated monocytes (DDAVP 0 ng/mL), P <0.005) is reported as 68% and the “% Inhibition of vWf release” value (PAF receptor; thrombin 5 U/mL, P <0.025) is reported as 15%. The “inhibition of the PAF-dependent release of vWf” value (PAF receptor; preincubated 10 minutes with ECs, final concentration 10 μM) was “effective inhibition of the PAF-dependent release of vWf”, the inhibition at 10 µM (PAF receptor; read-out: % Inhibition of vWf release, 10 μM BTP-dioxolane, PAF 100 pM, P <0.001) was 74.7 ± 4% and the inhibition at 10 µM (PAF receptor; read-out: % Inhibition of vWf release, 10 μM BTP-dioxolane, PAF 300 pM, P <0.005) was 83.2 ± 11%. The inhibition at 10 µM (PAF receptor; read-out: % Inhibition of vWf release, 10 μM BTP-dioxolane, supernatants from monocytes treated with 100 ng DDAVP/mL, P <0.001) was 81.8 ± 7%, the inhibition at 10 µM (PAF receptor; read-out: % Inhibition of vWf release, 10 μM BTP-dioxolane, supernatants from untreated monocytes (DDAVP 0 ng/mL), P <0.005) was 68.4 ± 10.4% and the inhibition at 10 µM (PAF receptor; read-out: % Inhibition of vWf release, 10 μM BTP-dioxolane, thrombin 5 U/mL, P <0.025) was 14.7 ± 4%. The inhibition at 10 µM (PAF receptor; read-out: inhibition of the effects of PAF on vWf release from ECs, BTP-dioxolane 10 μM, 100 pM or 300 pM PAF) was 75 to 83% and the “cytotoxicity to ECs” value (ECs) was “not cytotoxic”.

For NC(=O)CC[C@@H]1NC(=O)[C@H](Cc2ccccc2)NC(=O)[C@H](Cc2ccc(O)cc2)NC(=O)CCSSC[C@@H](C(=O)N2CCC[C@H]2C(=O)N[C@H](CCCN=C(N)N)C(=O)NCC(N)=O)NC(=O)[C@H](CC(N)=O)NC1=O [DDAVP, 1-deamino-8-D-arginine vasopressin], the “time course of PAF in monocyte supernatants” value (monocytes [1]; 100 ng DDAVP/mL vs unstimulated, at any point in time, 30 min to 24 h, FIG. 7A) was “higher levels of PAF present in post-DDAVP monocyte supernatants”, the “time course of PAF secretion from monocytes” value (shortened to “time course of PAF secretion”) (monocytes [1]; 100 ng DDAVP/mL, 2-4 hours, FIG. 7A) was “declined sharply” and the “time course of PAF secretion” value (monocytes [1]; 100 ng DDAVP/mL, 6 hours, FIG. 7A) was “increased again”. For the same compound, the “time course of PAF secretion” value (monocytes [1]; 100 ng DDAVP/mL, 24 hours, FIG. 7A) was “still elevated”, the “DDAVP concentration of maximum PAF secretion from monocytes” value (monocytes [1]; 30 minutes exposure, (169 nM)) was 200 ng DDAVP/mL and the “ED50 for PAF secretion from monocytes” value (monocytes [1]; 30 minutes, estimated) was 85 ng DDAVP/mL. The “PAF release from monocytes” value (monocytes [1]; FIG. 1B, 100 ng DDAVP/mL, 30 min, cf. 94 pM untreated, P<0.001) was 284 pM, the “maximum PAF secretion from monocytes” value (monocytes [1]; at 200 ng DDAVP/mL (169 nM), 30 minutes) was 480 fmol/mL and the “secretion of vWf by endothelial cells in vitro” value (endothelial cells) was “no increased secretion of vWf”. The TNF-α secreted (monocytes [2]; n=6, N.S. vs 0 ng/mL: 4 ± 3) was 0 ± 0 pg/mL, the IL-6 secreted (monocytes [2]; n=6, N.S. vs 0 ng/mL: 23 ± 9) was 26 ± 2 pg/mL and the IL-1β secreted (monocytes [2]; n=6, N.S. vs 0 ng/mL: 319 ± 118) was 271 ± 93 pg/mL. The IL-8 secreted (monocytes [2]; n=12, N.S. vs 0 ng/mL: 690 ± 257) was 639 ± 214 pg/mL, the “plasma concentration of von Willebrand factor and factor VIII in vivo” value ([3]; Mannucci et al.) was “causes an increase in the plasma concentration” and the “plasma concentration of von Willebrand factor and factor VIII” value ([3]; patients with mild or moderate haemophilia A or von Willebrand disease and normal individuals) was “increase the plasma concentration”. The “effect on secretion of PGE2, PGF2a, PGI2, ATP or ADP from monocytes” value (monocytes [4]) was “no significant effect”, the ADP secreted (monocytes [4]; n=5, N.S. vs 0 ng/mL: 16.8 ± 5.5) was 17.6 ± 12.2 nM and the PGF2α secreted (monocytes [4]; n=5, N.S. vs 0 ng/mL: 333 ± 116) was 406 ± 124 pg/mL. It also gave an ATP secreted (monocytes [4]; n=6, N.S. vs 0 ng/mL: 10.3 ± 6.6) of 7.4 ± 4.4 nM, a PGI2 secreted (monocytes [4]; n=9, N.S. vs 0 ng/mL: 106 ± 17) of 107 ± 18 pg/mL and a PGE2 secreted (monocytes [4]; n=10, N.S. vs 0 ng/mL: 3.61 ± 0.80) of 4.37 ± 1.70 pg/mL. The “vWf release from ECs” value (endothelial cells (ECs) [5]; FIG. 1A, supernatants from monocytes with 100 ng DDAVP/mL 30 min, ECs 4 hours, n=26, cf. 104% untreated, P<0.001) was 186%, the “enhancement of vWf release from ECs by lipid extracts of supernatants” value (endothelial cells (ECs) [5]; FIG. 3, DDAVP-treated monocytes (100 ng/mL), reconstituted lipid extract, n=7, cf. 71% untreated, P<0.05) was 195% and the “vWf releasing factor (%)” value (endothelial cells (ECs) [5]; Table 1, IL-1β to G-CSF set, monocytes with 100 ng DDAVP/mL 30 min, ECs 4 hours, n=6, P <0.05 vs 0 ng/mL: 131 ± 15) was 234 ± 35%. The “vWf releasing factor (%)” value (endothelial cells (ECs) [5]; Table 1, IL-8 set, 100 ng DDAVP/mL 30 min, ECs 4 hours, n=12, P <0.05 vs 0 ng/mL: 147 ± 29) was 291 ± 58%, the “vWf releasing factor (%)” value (endothelial cells (ECs) [5]; Table 2, ATP/ADP set, 100 ng DDAVP/mL 30 min, ECs 4 hours, n=6, P <0.025 vs 0 ng/mL: 99 ± 17) was 211 ± 33% and the “vWf releasing factor (%)” value (endothelial cells (ECs) [5]; Table 2, PGE2/PGF2α set, 100 ng DDAVP/mL 30 min, ECs 4 hours, n=10, P <0.01 vs 0 ng/mL: 122 ± 16) was 307 ± 62%. For the same compound, the “vWf releasing factor (%)” value (endothelial cells (ECs) [5]; Table 2, PGI2 set, 100 ng DDAVP/mL 30 min, ECs 4 hours, n=9, P <0.05 vs 0 ng/mL: 153 ± 35) was 347 ± 66%, the “time course of vWf release from ECs” value (endothelial cells (ECs) [5]; supernatants from DDAVP-stimulated vs unstimulated monocytes, except at 2 hours, FIG. 7B) was “consistently higher levels of vWf released” and the “DDAVP concentration of maximum vWf release from ECs” value (endothelial cells (ECs) [5]; supernatants from DDAVP-treated monocytes, ECs 4 hours) was 100 ng DDAVP/mL. For the same compound, the “ED50 for vWf release from ECs” value (endothelial cells (ECs) [5]; supernatants from DDAVP-treated monocytes, ECs 4 hours, estimated) was 45 ng DDAVP/mL, the “Increase in vWf release (%), BTP-dioxolane absent” value (endothelial cells (ECs) [5]; supernatants from monocytes treated with 100 ng DDAVP/mL 30 min, ECs 4 hours, n=5, 0 ng/mL: 92.6 ± 14.7%) was 197.2 ± 22.8% and the “vWf release from ECs, dose response” value (endothelial cells (ECs) [5]; supernatants from monocytes with 10-800 ng DDAVP/mL, ECs 4 hours at 37° C.) was “significant increases in vWf release were observed at all concentrations tested”. For the same compound, the “increase in PGI2 release from ECs” value (endothelial cells (ECs) [6]; DDAVP-treated compared to untreated monocyte supernatants, P<0.05) was 60% and the “PGI2 release from ECs” value (endothelial cells (ECs) [6]; supernatants from DDAVP-treated monocytes, cf. 332±107 untreated, corrected for PGI2 in supernatants) was 538 ± 136 pg/mL.
